What was measured:
[1] = tested on: rabbit; conditions: Prenatal developmental toxicity study, new zealand white, Oral, Gavage/Intubation, dose end: 18 GD
[2] = tested on: mouse; conditions: Carcinogenicity, b6c3f1, Oral, Feed, dose end: 24 month, group: systemic
[3] = tested on: mouse; conditions: Carcinogenicity, b6c3f1, Oral, Feed, dose end: 24 month, group: systemic; remark: listed apart in the source
[4] = tested on: dog; conditions: Chronic toxicity; beagle; Oral; Feed; dose end: 53 week; group: systemic; systemic / clinical chemistry / alkaline phosphatase (alp/alk) / alkaline phosphatase (alp/alk) + systemic / clinical chemistry / …
[5] = tested on: rat; conditions: Prenatal developmental toxicity study, sprague dawley, Oral, Gavage/Intubation, dose end: 15 GD
[6] = tested on: rat; conditions: Combined chronic toxicity/carcinogenicity, fischer, Oral, Feed, dose end: 24 month, group: systemic
[7] = tested on: mouse; conditions: Subchronic oral toxicity in rodents, b6c3f1, Feed, dose end: 96 day, group: systemic, systemic / organ weight / liver / absolute + systemic / organ weight / liver / relative to body weight + systemic / organ weight / liver / …
[8] = tested on: rat; conditions: Multigenerational reproductive toxicity study, fischer, Oral, Feed, dose end: 2 generation
[9] = tested on: rat; conditions: Combined chronic toxicity/carcinogenicity, sprague dawley, Oral, Feed, dose end: 104 week, group: systemic
[10] = tested on: dog; conditions: Subchronic oral toxicity in nonrodent, beagle, Capsule, dose end: 13 week, group: systemic
[11] = tested on: dog; conditions: Chronic toxicity; beagle; Oral; Capsule; dose end: 1 year; group: systemic; systemic / in life observation / body weight / body weight gain + systemic / in life observation / clinical signs / emesis + systemic / in …
[12] = tested on: rat; conditions: Prenatal developmental toxicity study, sprague dawley, Oral, Gavage/Intubation, dose end: 15 GD; remark: listed apart in the source
[13] = tested on: mouse; conditions: Carcinogenicity, cd1, Oral, Feed, dose end: 78 week, group: systemic
[14] = tested on: rat; conditions: Multigenerational reproductive toxicity study, sprague dawley, Oral, Feed, dose end: 2 generation
[15] = tested on: rat; conditions: Subchronic oral toxicity in rodents, other, Feed, dose end: 13 week
[16] = tested on: rabbit; conditions: Prenatal developmental toxicity study, himalayan, Dermal, Topical, dose end: 19 GD
[17] = tested on: mouse; conditions: Subchronic oral toxicity in rodents, cd1, Feed, dose end: 13 week, group: systemic
[18] = tested on: dog; conditions: Chronic toxicity; beagle; Oral; Capsule; dose end: 1 year; group: systemic; systemic / in life observation / body weight / body weight gain + systemic / in life observation / clinical signs / emesis + systemic / in …; remark: listed apart in the source
[19] = group: developmental, developmental / developmental malformation / bone / misshapen
[20] = group: maternal, systemic / in life observation / body weight / body weight gain + systemic / organ weight / liver / absolute + systemic / organ weight / …
[21] = systemic / pathology gross / intestine small / discolored + systemic / pathology microscopic / intestine small / [other] + systemic / …
[22] = systemic / pathology microscopic / intestine small / hyperplasia + systemic / pathology microscopic / intestine small / hypertrophy + …
[23] = group: developmental, developmental / developmental malformation / bone / incomplete ossification + developmental / developmental malformation / bone / short …
[24] = group: maternal, systemic / in life observation / body weight / body weight + systemic / in life observation / body weight / body weight gain + systemic / in…
[25] = systemic / in life observation / body weight / body weight gain
[26] = systemic / in life observation / body weight / body weight gain + systemic / pathology microscopic / kidney / adenocarcinoma + systemic / …
[27] = group: offspring, systemic / in life observation / body weight / offspring (pup) weight + systemic / pathology microscopic / liver / vacuolization
[28] = group: parental, systemic / organ weight / liver / absolute + systemic / organ weight / liver / relative to body weight
[29] = systemic / clinical chemistry / alanine aminotransferase (alt/sgpt) / alanine aminotransferase (alt/sgpt) + systemic / in life observation…
[30] = systemic / in life observation / body weight / body weight gain + systemic / in life observation / clinical signs / emesis + systemic / in …
[31] = systemic / in life observation / clinical signs / soft stools + systemic / in life observation / food consumption / food consumption
[32] = group: developmental, developmental / developmental malformation / bone / incomplete ossification + systemic / in life observation / body weight / fetal weight
[33] = group: maternal, systemic / in life observation / body weight / body weight gain + systemic / in life observation / food consumption / food consumption
[34] = group: maternal, systemic / in life observation / body weight / body weight gain + systemic / in life observation / food consumption / food consumption + …
[35] = systemic / in life observation / body weight / body weight gain + systemic / in life observation / food consumption / food efficiency + …
[36] = systemic / organ weight / brain / relative to body weight
[37] = group: offspring, systemic / in life observation / body weight / offspring (pup) weight
[38] = group: parental, systemic / in life observation / body weight / body weight + systemic / in life observation / body weight / body weight gain + systemic / in…
[39] = group: cholinesterase, cholinesterase / cholinesterase / cholinesterase / cholinesterase (che)
[40] = group: systemic, systemic / clinical chemistry / urea nitrogen / urea nitrogen
[41] = group: developmental, developmental / developmental malformation / bone / incomplete ossification
[42] = group: maternal, systemic / in life observation / clinical signs / erythema + systemic / in life observation / clinical signs / scabbing + systemic / …
[43] = systemic / clinical chemistry / glucose / glucose

Clc1cccc(C(Cl)(Cl)Cl)n1 [Nitrapyrin]
LEL [1, 19]: 30 mg/kg/day
LOAEL [1, 19]: 30 mg/kg/day
NEL [1, 19]: 10 mg/kg/day
NOAEL [1, 19]: 10 mg/kg/day
LEL [1, 20]: 30 mg/kg/day
LOAEL [1, 20]: 30 mg/kg/day
NEL [1, 20]: 10 mg/kg/day
NOAEL [1, 20]: 10 mg/kg/day
LOAEL [2, 21]: 75 mg/kg/day
NEL [2, 21]: 5 mg/kg/day
NOAEL [2, 21]: 25 mg/kg/day
LEL ([2]; systemic / pathology microscopic / intestine small / [other] + systemic / pathology gross / intestine small / discolored + systemic / …): 25 mg/kg/day
LOAEL [3, 22]: 125 mg/kg/day
NOAEL [3, 22]: < 125 mg/kg/day
NEL ([3]; systemic / pathology microscopic / liver / hypertrophy + systemic / pathology microscopic / stomach / hyperkeratosis + systemic / pathology …): 250 mg/kg/day
LEL [4]: 15 mg/kg/day
LOAEL [4]: 15 mg/kg/day
NEL [4]: 3 mg/kg/day
NOAEL [4]: 3 mg/kg/day
LEL [5, 23]: 120 mg/kg/day
LOAEL [5, 23]: 120 mg/kg/day
NEL [5, 23]: 50 mg/kg/day
NOAEL [5, 23]: 50 mg/kg/day
LOAEL [5, 24]: 120 mg/kg/day
NEL [5, 24]: 15 mg/kg/day
NOAEL [5, 24]: 50 mg/kg/day
LEL ([5]; group: maternal, systemic / in life observation / body weight / body weight gain): 50 mg/kg/day
LOAEL [6, 25]: 20 mg/kg/day
LEL ([6]; systemic / in life observation / body weight / body weight gain + systemic / in life observation / body weight / body weight): 20 mg/kg/day
NEL [6, 26]: 5 mg/kg/day
NOAEL [6, 26]: 5 mg/kg/day
LEL [7]: 200 mg/kg/day
LOAEL [7]: 200 mg/kg/day
NEL [7]: < 200 mg/kg/day
NOAEL [7]: < 200 mg/kg/day
LOAEL [8, 27]: 75 mg/kg/day
NEL [8, 27]: 20 mg/kg/day
NOAEL [8, 27]: 20 mg/kg/day
LEL ([8]; group: offspring, systemic / in life observation / body weight / offspring (pup) weight + systemic / pathology microscopic / liver / vacuolization + systemic…): 75 mg/kg/day
NOAEL ([8]; group: parental, systemic / organ weight / kidney / absolute + systemic / organ weight / kidney / relative to body weight + systemic / in life observation / …): 5 mg/kg/day
LOAEL ([8]; group: parental, systemic / organ weight / kidney / absolute + systemic / organ weight / kidney / relative to body weight + systemic / organ weight / liver…): 20 mg/kg/day
LEL [8, 28]: 5 mg/kg/day
NEL [8, 28]: < 5 mg/kg/day

CC(C)(C)c1ccc(CSc2cnn(C(C)(C)C)c(=O)c2Cl)cc1 [Pyridaben]
LOAEL [9, 29]: 5 mg/kg/day
NEL [9, 29]: 0.4 mg/kg/day
LEL ([9]; systemic / urinalysis / volume / volume): 1.13 mg/kg/day
LOAEL [10, 30]: 4 mg/kg/day
NOAEL [10, 30]: 1 mg/kg/day
LEL [10, 31]: 0.5 mg/kg/day
NEL [10, 31]: < 0.5 mg/kg/day
LEL [11]: 1 mg/kg/day
LOAEL [11]: 1 mg/kg/day
NEL [11]: < 1 mg/kg/day
NOAEL [11]: < 1 mg/kg/day
LEL [12, 32]: 30 mg/kg/day
LOAEL [12, 32]: 30 mg/kg/day
NEL [12, 32]: 13 mg/kg/day
NOAEL [12, 32]: 13 mg/kg/day
LEL [12, 33]: 13 mg/kg/day
LOAEL [12, 33]: 13 mg/kg/day
NEL [12, 34]: 5.7 mg/kg/day
NOAEL [12, 34]: 5.7 mg/kg/day
LOAEL [13, 35]: 8.88 mg/kg/day
NOAEL [13, 35]: 2.78 mg/kg/day
LEL [13, 36]: 0.26 mg/kg/day
NEL [13, 36]: < 0.26 mg/kg/day
LEL [14, 37]: 6.31 mg/kg/day
LOAEL [14, 37]: > 6.31 mg/kg/day
NEL [14, 37]: 2.2 mg/kg/day
NOAEL [14, 37]: ≥ 6.31 mg/kg/day
LOAEL [14, 38]: 6.31 mg/kg/day
NOAEL [14, 38]: 2.2 mg/kg/day
LEL ([14]; group: parental, systemic / organ weight / ovary / absolute): 2.41 mg/kg/day
NEL ([14]; group: parental, systemic / organ weight / ovary / absolute + systemic / in life observation / body weight / body weight + systemic / in life observation / …): 0.94 mg/kg/day
LEL [15, 39]: 27.7 mg/kg/day
LOAEL [15, 39]: > 27.7 mg/kg/day
NEL [15, 39]: 12.8 mg/kg/day
NOAEL [15, 39]: ≥ 27.7 mg/kg/day
LEL [15, 40]: 2.3 mg/kg/day
NEL [15, 40]: < 2.3 mg/kg/day
LOAEL ([15]; group: systemic, systemic / in life observation / body weight / body weight gain + systemic / in life observation / food consumption / food efficiency): 5.53 mg/kg/day
NOAEL ([15]; group: systemic, systemic / in life observation / body weight / body weight gain + systemic / in life observation / food consumption / food efficiency + …): 2.64 mg/kg/day
LEL [16, 41]: 450 mg/kg/day
LOAEL [16, 41]: 450 mg/kg/day
NEL [16, 41]: 170 mg/kg/day
NOAEL [16, 41]: 170 mg/kg/day
LEL [16, 42]: 70 mg/kg/day
LOAEL [16, 42]: 70 mg/kg/day
NEL [16, 42]: < 70 mg/kg/day
NOAEL [16, 42]: < 70 mg/kg/day
LEL [17, 43]: 4.07 mg/kg/day
NEL [17, 43]: < 4.07 mg/kg/day
LOAEL [17, 25]: 13 mg/kg/day
NOAEL ([17]; systemic / in life observation / body weight / body weight gain + systemic / clinical chemistry / alkaline phosphatase (alp/alk) / alkaline …): 4.07 mg/kg/day
LEL [18]: 0.5 mg/kg/day
LOAEL [18]: 0.5 mg/kg/day
NEL [18]: < 0.5 mg/kg/day
NOAEL [18]: < 0.5 mg/kg/day

From EPA's ToxRefDB 2
